Measurements: ChEMBL document CHEMBL1126140, “Nucleosides and nucleotides. 103. 2-Alkynyladenosines: a novel class of selective adenosine A2 receptor agonists with potent antihypertensive effects” (J Med Chem, 1992)

Key:
Adenosine A2 receptor [1] = target: T1, Adenosine A2 receptor (Rattus norvegicus, UniProt P29276+P30543)
Description: Binding affinity against adenosine A2 receptor in rat striatal membranes using [3H]NECA as radioligand

Rattus norvegicus [2] = assay: Dose producing 10% decrease of heart rate in anesthetized rats (SHR); type: functional
Rattus norvegicus [3] = assay: Dose producing 30% decrease of blood pressure in anesthetized rats (SHR); type: functional
Adenosine receptor A1 [4] = target: T2, Adenosine receptor A1 (Rattus norvegicus, UniProt P25099)
T2 sequence (P25099 whole entry): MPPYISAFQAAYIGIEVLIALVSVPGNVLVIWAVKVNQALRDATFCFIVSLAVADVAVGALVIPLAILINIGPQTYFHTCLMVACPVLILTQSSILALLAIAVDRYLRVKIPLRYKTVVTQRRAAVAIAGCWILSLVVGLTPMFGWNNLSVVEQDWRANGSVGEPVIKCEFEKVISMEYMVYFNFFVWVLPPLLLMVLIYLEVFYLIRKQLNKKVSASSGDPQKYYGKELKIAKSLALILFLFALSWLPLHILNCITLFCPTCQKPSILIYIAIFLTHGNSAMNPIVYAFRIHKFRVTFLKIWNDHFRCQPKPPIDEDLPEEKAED
Description: Binding affinity against adenosine A1 receptor in rat brain membranes using [3H]CHA as radioligand

Adenosine receptor A1 [5] = target: T2, Adenosine receptor A1; assay: Binding affinity against adenosine A1 receptor in rat brain membranes using [3H]-CHA; type: cell membranes
Adenosine A2 receptor [6] = target: T1, Adenosine A2 receptor; assay: Binding affinity against adenosine A2 receptor in rat striatal membranes using [3H]NECA; type: cell membranes, Striatum, Membrane

Row | Compound | Ki (Adenosine A2 receptor [1]) [nM] | Ki (Adenosine receptor A1 [4]) [nM] | Ki (Adenosine receptor A1 [5]) [nM] | Ki (Adenosine A2 receptor [6]) [nM] | ED10 (Rattus norvegicus [2]) [µg/kg] | ED30 (Rattus norvegicus [3]) [µg/kg]
1 | Nc1nc(Nc2ccccc2)nc2c1ncn2[C@@H]1O[C@H](CO)[C@@H](O)[C@H]1O | 107 | – | – | – | > 100 | 5.82
2 | CCCCCCCCOCCC#Cc1nc(N)c2ncn([C@@H]3O[C@H](CO)[C@@H](O)[C@H]3O)c2n1 | 307 | 1500 | – | – | > 100 | 9.16
3 | CCCCCCC#Cc1nc(N)c2[nH]cnc2n1 | > 567 | > 567 | – | – | > 100 | > 100
4 | CCCCCCCCc1nc(N)c2ncn(C3O[C@H](CO)[C@@H](O)[C@H]3O)c2n1 (some centres not stated) | > 567 | > 567 | – | – | > 100 | > 100
5 | CCc1nc(N)c2ncn(C3O[C@H](CO)[C@@H](O)[C@H]3O)c2n1 (some centres not stated) | > 567 | > 567 | – | – | > 100 | > 100
6 | C#Cc1nc(N)c2ncn(C3O[C@H](CO)[C@@H](O)[C@H]3O)c2n1 (some centres not stated) | 37.6 | 272 | – | – | 5.76 | 5.91
7 | CCCCCCCCCCC#Cc1nc(N)c2ncn(C3O[C@H](CO)[C@@H](O)[C@H]3O)c2n1 (some centres not stated) | – | – | 267 | 44.6 | > 100 | 2.05
8 | CCCCCCC#Cc1nc(O)c2ncn(C3O[C@H](CO)[C@@H](O)[C@H]3O)c2n1 (some centres not stated) | > 567 | > 567 | – | – | > 100 | > 100
9 | CC(=O)c1nc(N)c2ncn(C3O[C@H](CO)[C@@H](O)[C@H]3O)c2n1 (some centres not stated) | > 567 | > 567 | – | – | 50.3 | 46.7
10 | CCCCCC/C=C\c1nc(N)c2ncn(C3O[C@H](CO)[C@@H](O)[C@H]3O)c2n1 (some centres not stated) | 150 | > 567 | – | – | > 100 | 5
11 | CCCCCCC#Cc1nc2c(N)ncnc2n1C1O[C@H](CO)[C@@H](O)[C@H]1O (some centres not stated) | > 567 | > 567 | – | – | > 100 | > 100
12 | CCCCCCC#Cc1ncnc2c1ncn2C1O[C@H](CO)[C@@H](O)[C@H]1O (some centres not stated) | > 567 | > 567 | – | – | > 100 | > 100
13 | CCNC(=O)[C@H]1O[C@@H](n2cnc3c(N)nc(NCCc4ccc(CCC(=O)O)cc4)nc32)[C@H](O)[C@@H]1O [CGS-21680] | – | – | – | – | > 100 | 0.83
14 | OC[C@H]1O[C@@H](n2cnc3c(NC4CCCC4)ncnc32)[C@H](O)[C@@H]1O [N6-CYCLOPENTYLADENOSINE] | 421 | – | – | – | 0.14 | 0.5
15 | CCNC(=O)[C@H]1O[C@@H](n2cnc3c(N)ncnc32)[C@H](O)[C@@H]1O [NECA] | – | – | – | – | 0.35 | 0.19

More lines, main results first:

Row | Ki (Adenosine A2 receptor [1]) [nM] | Ki (Adenosine receptor A1 [4]) [nM] | Ki (Adenosine receptor A1 [5]) [nM] | Ki (Adenosine A2 receptor [6]) [nM] | Compound | ED10 (Rattus norvegicus [2]) [µg/kg] | ED30 (Rattus norvegicus [3]) [µg/kg]
16 | – | 103 | – | – | COc1cc(OC)cc(C(CNc2ncnc3c2ncn3[C@@H]2O[C@H](CO)[C@@H](O)[C@H]2O)c2ccccc2C)c1 (some centres not stated) | > 100 | 12.1
17 | 40.1 | 81.4 | – | – | Nc1nc(C#CCCO)nc2c1ncn2[C@@H]1O[C@H](CO)[C@@H](O)[C@H]1O | 15.3 | 2.53
18 | 12.1 | 202 | – | – | CCCCCCC#Cc1nc(N)c2ncn([C@@H]3O[C@H](CO)[C@@H](O)[C@H]3O)c2n1 | > 100 | 0.34
19 | 20.5 | 10.1 | – | – | Nc1nc(C#CCO)nc2c1ncn2[C@@H]1O[C@H](CO)[C@@H](O)[C@H]1O | 1.19 | 0.95
20 | 5.4 | 170 | – | – | CCCCCC#Cc1nc(N)c2ncn([C@@H]3O[C@H](CO)[C@@H](O)[C@H]3O)c2n1 | > 100 | 0.14
21 | 630 | 69.8 | – | – | C[Si](C)(C)C#Cc1nc(N)c2ncn([C@@H]3O[C@H](CO)[C@@H](O)[C@H]3O)c2n1 | > 100 | 1.15
22 | 7.5 | 154 | – | – | CCCC#Cc1nc(N)c2ncn([C@@H]3O[C@H](CO)[C@@H](O)[C@H]3O)c2n1 | 41.5 | 0.18
23 | 33.7 | 257 | – | – | CCCCCCCC#Cc1nc(N)c2ncn([C@@H]3O[C@H](CO)[C@@H](O)[C@H]3O)c2n1 | > 100 | 0.53
24 | 10.6 | 18.5 | – | – | CCCCOCC#Cc1nc(N)c2ncn([C@@H]3O[C@H](CO)[C@@H](O)[C@H]3O)c2n1 | 9.59 | 1.06
25 | 12.8 | 244 | – | – | CCOCCCC#Cc1nc(N)c2ncn([C@@H]3O[C@H](CO)[C@@H](O)[C@H]3O)c2n1 | > 100 | 1.42
26 | 88.1 | 38.1 | – | – | COCC#Cc1nc(N)c2ncn([C@@H]3O[C@H](CO)[C@@H](O)[C@H]3O)c2n1 | 44.2 | 23.8
27 | 32.8 | 232 | – | – | CCCCCCCCC#Cc1nc(N)c2ncn([C@@H]3O[C@H](CO)[C@@H](O)[C@H]3O)c2n1 | > 100 | 0.46
28 | 21.2 | 186 | – | – | CCC#Cc1nc(N)c2ncn([C@@H]3O[C@H](CO)[C@@H](O)[C@H]3O)c2n1 | 18.4 | 0.48
29 | – | 126 | – | – | CCCCC#Cc1nc(N)c2ncn([C@@H]3O[C@H](CO)[C@@H](O)[C@H]3O)c2n1 | 66.9 | 0.11
30 | 10.2 | 128 | – | – | CCCOCCC#Cc1nc(N)c2ncn(C3O[C@H](CO)[C@@H](O)[C@H]3O)c2n1 (some centres not stated) | 79.9 | 1.1
